Experimental data from patent US20150257378A1, “PHEROMONE ATTRACTANTS FOR TAWNY CRAZY ANTS” (STERLING INTERNATIONAL INC., priority 2014, published 2015).

Experiments:
N. fulva workers = experiment: Field trapping experiments with baited sticky traps; assay type: in vivo, Nylanderia fulva; conditions: for attraction compared with blank control: Exp. 8, full factorial design, n-undecane 6-7 mg/day, 2-tridecanone 1 mg/day, formic acid 27-30 mg/d, three days
Procedure: Nine field trapping experiments were carried out in an old oak woodland with sandy soil and low grass understory at La Marque, Tex., USA (29° 21′23.73″N; 95° 0′9.47″W), using Terro® “Spider & Insect Traps” (sticky traps; Woodstream Corporation, Lititz, Pa.) or Rescue!® crawling insect sticky traps (described, for example in U.S. Application Publication No. 2013/0318860 A1, herein incorporated by reference in its entirety). All the tested dispensers were placed in the center of sticky surface on the bottom of the trap. An unbaited sticky trap was included in each experiment block for all the experiments as a blank control.
Experiments 1 and 2 were conducted simultaneously in summer. Exp. 1 tested two synthetic Dufour's gland pheromone candidate mixtures identified from N. fulva workers (treatment “A”: a mix of eight compounds at near natural ratios from workers: n-undecane, 2-tridecanone, n-decane, 1-undecene, n-tridecane, 2-dodecanone, 2-tetradecanone, 2-pentadecanone; 41:53:1.2:0.5:1:2:0.3:1) and queens (treatment “B”: a mix of four compounds at near natural ratios: n-undecane, 2-tridecanone, n-tridecane and 2-pentadecanone; 54:40:1:5) plus a synthetic binary blend of the two major components (undecane and 2-tridecanone at 50:50 ratio) identified from both workers and queens (treatment “C”) (Table in FIG. 3) using centrifuge tube dispensers with low loading (30 mg each mixture on a small cotton ball inside an open cap 2-ml centrifuge dispenser) at about 2 mg/day (mg/d) release in a randomized block design (6 blocks) using Terro® “Spider & Insect Traps”. Traps were placed on the ground in lines with 2 meters (m) between traps within each set, 3 m between trap sets. […] Experiment 2 was distanced about 15 m away from Exp. 1. The tawny crazy ant population level at the testing site was relatively high and ubiquitous throughout the landscape, as the tawny crazy ant population was actively foraging over the entire surface of the woodland understory and up every tree. The weather was sunny with a mean daily temperature of 28.6° C.
Experiments 3 and 4 were conducted simultaneously in the fall. Exp. 3 tested two synthetic Dufour's gland pheromone candidate mixtures mimicking the N. fulva workers (treatment “A”: a mix of eight compounds; 100 mg loading) and queens (treatment “B”: a mix of four compounds; 100 mg loading) using centrifuge dispensers (with one small cotton ball in each) with low release rate (ca. 2 mg/d), one positive control (treatment “C”: yellow plastic cap loaded with 1 g of Advance® Granular Carpenter Ant Bait, BASF Corporation, NJ, USA), plus a blank control (“D”), in a randomized block design (6 blocks/sets) using the Rescue!® crawling insect sticky traps. Same as in Exp. 1-2, the traps were placed were placed on the ground in lines with 2 m between traps within each set, 3 m between trap sets. […] Exp. 4 was distanced 20 m from Exp. 3. The weather was sunny with a mean daily temperature of 23.4° C. for days 1 and 2. On Day 3 the weather was overcast with a mean daily temperature of 25.3° C. and 0.97 cm of rainfall.
Experiments 5 and 6 were conducted simultaneously in late fall. Exp. 5 tested potential attraction of N. fulva workers to a synthetic mixture mimicking the full blend of N. fulva worker Dufour's gland pheromone (treatment “A”: a mix of eight compounds; 100 mg mixed with 400 μl canola oil (CO) from a stickpack dispenser; 8-12 mg/d), a synthetic pheromone candidate of N. fulva poison gland, formic acid (FA) (treatment “B”; 438 mg FA mixed with 812 mg of polyurethane inside an open 2-ml centrifuge tube; at 27-30 mg/d release) and their combination (treatment “C”) plus a blank control (“D”) in a randomized block design (6 blocks/sets) using the Rescue!® crawling insect sticky traps. Traps were again placed on the ground in lines with 2 m between traps within each set, 3 m between trap sets.

[1] = test system: workers of the red imported fire ants; conditions: contact/fumigation; cited from earlier work
[2] = test system: Argentine ant (Linepithema humile) workers; conditions: mixed with the baits; cited from earlier work
L. humile workers = conditions: mixed in insecticide sprays; cited from earlier work

O=CO [formic acid]
significance of difference from blank control (N. fulva workers; Exp. 5, late fall, low temperature and rain): no significant differences
N. fulva workers caught compared with blank control (in words) (N. fulva workers; Exp. 5, late fall, low temperature and rain, mix of 8 at 8-12 mg/d, formic acid at 27-30 mg/d): twice as many
attraction of N. fulva workers (N. fulva workers; Exp. 7, summer, high ant populations, mix of 8 at 8-12 mg/d, formic acid at 27-30 mg/d): inactive
attraction compared with blank control (N. fulva workers): not different from the blank control
toxicity to fire ant workers [1]: strong contact/fumigation toxicity

CCCCCC/C=C\CCCCCCCC=O [Z-9-hexadecenal]
effect on consumption of sugar-based liquid baits by ant workers [2]: increase the consumption
effect on killing efficacy of insecticides (L. humile workers): increase the killing efficacy

CCCCCCCCCCC [n-undecane]
attraction compared with blank control (N. fulva workers): significantly attractive
attraction of tawny crazy ant workers (N. fulva workers; Exp. 9, fall, n-undecane from stickpack at 9-11 mg/d): weakly, but significantly attractive
toxicity to fire ant workers [1]: strong contact/fumigation toxicity

CCCCCCCCCCCC(C)=O [2-tridecanone]
attraction compared with blank control (N. fulva workers): not different from the blank control
toxicity to fire ant workers [1]: strong contact/fumigation toxicity
